These results are taken from article PMC10922394 (Journal of internal medicine, 2023).

The target in this assay is T1, rChAT (recombinant choline acetyltransferase) (Homo sapiens, UniProt P28329).
T1 sequence (P28329 119-748): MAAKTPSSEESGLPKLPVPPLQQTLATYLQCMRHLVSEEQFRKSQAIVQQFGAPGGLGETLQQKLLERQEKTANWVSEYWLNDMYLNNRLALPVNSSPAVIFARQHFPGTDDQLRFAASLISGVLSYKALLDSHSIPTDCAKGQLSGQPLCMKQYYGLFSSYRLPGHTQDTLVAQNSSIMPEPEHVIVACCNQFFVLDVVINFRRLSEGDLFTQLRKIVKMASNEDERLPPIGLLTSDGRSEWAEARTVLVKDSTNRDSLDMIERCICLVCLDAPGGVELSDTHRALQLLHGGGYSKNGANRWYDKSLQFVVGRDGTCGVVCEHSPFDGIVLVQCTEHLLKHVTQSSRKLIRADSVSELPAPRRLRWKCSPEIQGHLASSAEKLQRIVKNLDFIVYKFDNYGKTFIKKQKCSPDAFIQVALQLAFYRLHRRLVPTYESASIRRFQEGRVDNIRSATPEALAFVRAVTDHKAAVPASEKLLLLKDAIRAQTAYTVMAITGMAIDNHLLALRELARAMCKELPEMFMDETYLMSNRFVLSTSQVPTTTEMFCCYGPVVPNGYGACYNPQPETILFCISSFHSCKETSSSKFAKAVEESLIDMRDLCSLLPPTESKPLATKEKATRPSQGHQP
Briefly: colorimetric ChAT assay. It is filed as biochemical.

pIC50: −log10 of the molar value.

Broadly, the pIC50 is −log10 of the IC50, conventionally taken in molar units.

For the compound `C[N+](C)(C)CCC(=O)c1cccc2ccccc12` [alpha-NETA], the pIC50 was 6.83.
